Experimental data: paper PMC3136501 (PLoS ONE, 2011)

Molecular target: T1, human OCT3 (Homo sapiens, UniProt O75751)
T1 sequence (O75751 1-556): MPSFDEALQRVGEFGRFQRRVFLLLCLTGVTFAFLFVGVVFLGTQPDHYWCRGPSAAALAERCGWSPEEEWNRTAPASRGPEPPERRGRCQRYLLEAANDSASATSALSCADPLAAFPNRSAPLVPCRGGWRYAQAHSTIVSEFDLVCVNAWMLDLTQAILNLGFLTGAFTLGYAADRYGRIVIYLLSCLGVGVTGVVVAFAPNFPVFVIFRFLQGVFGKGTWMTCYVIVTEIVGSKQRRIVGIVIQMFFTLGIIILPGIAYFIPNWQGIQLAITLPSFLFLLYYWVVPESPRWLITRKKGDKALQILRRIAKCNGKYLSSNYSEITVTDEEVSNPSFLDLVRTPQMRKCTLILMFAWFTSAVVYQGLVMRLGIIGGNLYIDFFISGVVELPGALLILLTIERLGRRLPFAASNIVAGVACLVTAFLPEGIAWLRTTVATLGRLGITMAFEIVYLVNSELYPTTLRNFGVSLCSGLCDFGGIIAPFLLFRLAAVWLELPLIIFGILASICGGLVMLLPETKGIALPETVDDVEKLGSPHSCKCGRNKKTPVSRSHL
Test: Inhibition of OCT3-mediated metformin uptake in stably transfected HEK cells
Type: cell-based
Details: 5 µM [14C]metformin uptake, 5 min, HEK-OCT3, means ± SE of 3 experiments
Protocol: SLC22A1 cDNA and SLC22A2 cDNA had been PCR-amplified from human liver and kidney, respectively, as reported elsewhere and cDNAs were provided by the German Cancer Research Center; the study and the use of the tissue were approved by the institutional review board of the German Cancer Center, Heidelberg, Germany. Since the data were analyzed anonymously, and tissues were left-over samples from diagnostic procedures, written informed consent had not been required and obtained. IRB specifically waived the need for consent due to the fact the human tissue material used was fully anonymized. SLC22A3 cDNA was amplified using SLC22A3-TrueClone (Origene, Rockville, MD, USA) as the template. SLC22A1 cDNA was cloned into the expression vector pcDNA3.1/Hygro(-) (Invitrogen, Darmstadt, Germany), SLC22A2 and SLC22A3 cDNA into pcDNA3.1(+) (Invitrogen). Each transporter cDNA was sequenced and the respective deduced amino acid sequence was identical to the published reference protein sequence (OCT1: NP_003048.1; OCT2: NP_003049.2; OCT3: NP_068812.1). The human embryonic kidney 293 (HEK) cell line was obtained from the American Type Culture Collection. HEK cells were grown in DMEM (Sigma) supplemented with 10% fetal bovine serum (Sigma), 100 U⋅ml^−1 penicillin, and 100 µg⋅ml^−1 streptomycin (Lonza, Basel, Switzerland) at 37°C and 5% CO2. HEK cells were transfected with Metafectene Pro (Biontex, München, Germany). Selection of clones stably expressing OCT1 was carried out with 0.5 mg⋅ml^−1 hygromycin as described. Similarly, clones stably expressing OCT2 or OCT3 were selected with 800 µg⋅ml^−1 G418. HEK cells stably transfected with the empty pcDNA3.1(+) vector served as controls (HEK-Co). Cells were incubated with 5 mM butyrate 24 h before use to increase protein levels of recombinant transporters.
HEK cells (400000 cells/well) were seeded into 24-well cell culture plates (Greiner Bio-One, Frickenhausen, Germany) and grown for 48 h. Cell adherence was improved by coating plates with poly-L-lysine (Biochrom AG, Berlin, Germany) prior to cell plating. All uptake studies were carried out at 37°C as described. For uptake measurements, cells were firstly washed with uptake buffer (145 mM NaCl, 5 mM hydroxyethylpiperazine ethanesulfonic acid, 3 mM KCl, 1 mM CaCl2, 0.5 mM MgCl2, 5 mM glucose, pH 7.4, [46]) prewarmed to 37°C. […] Uptake was stopped at indicated time points by removing the uptake buffer and immediately washing the cells 3 times with ice-cold uptake buffer. Cells were lysed with 0.2% SDS and intracellular radioactivity was determined by liquid scintillation counting (Hidex 300SL TDCR liquid scintillation counter, Turku, Finland). For measuring inhibition of OCT-mediated metformin uptake by PPIs, 5 µM [^14C]metformin uptake was measured in the presence of different PPI concentrations and stopped after 5 min (OCT1, OCT3) or 5 sec (OCT2).
OCT-specific metformin uptake was obtained by subtracting metformin uptake in the presence of 2 mM unlabeled 1-methyl-4-phenylpyridinium (MPP) from that in its absence. […] OCT-specific metformin uptake in the presence of a PPI was then calculated as percentage of that in the absence of the respective PPI (100% uninhibited). For each PPI concentration, 3 individual experiments each with 3 parallel measurements were performed. Apparent IC50 values for inhibition of metformin uptake by PPIs were calculated for each individual experiment by fitting the values to the Hill equation using GraphPad Prism 4 (GraphPad Software Inc., La Jolla, CA, USA). Values in Table 1 are given as the means ± SE of the 3 individual experiments.

Structure (SMILES)	IC50 [µM]
COc1ccc2[nH]c([S+]([O-])Cc3ncc(C)c(OC)c3C)nc2c1 (stereo not drawn) [Omeprazole]	22 ± 2.2
COCCCOc1ccnc(C[S+]([O-])c2nc3ccccc3[nH]2)c1C (stereo not drawn) [Rabeprazole]	3 ± 0.8
Cc1c(OCC(F)(F)F)ccnc1C[S+]([O-])c1nc2ccccc2[nH]1 (stereo not drawn) [Lansoprazole]	3.1 ± 1.3
COc1ccc2[nH]c([S+]([O-])Cc3ncc(C)c(OC)c3C)nc2n1 (stereo not drawn) [Tenatoprazole]	14.7 ± 2.4
COc1ccnc(C[S+]([O-])c2nc3ccc(OC(F)F)cc3[nH]2)c1OC (stereo not drawn) [Pantoprazole]	22.9 ± 5.2

Same assay, conditions: 5 µM metformin, 2 mM unlabeled MPP

Structure (SMILES)	Metformin uptake by HEK-OCT3 in the presence of MPP
C[n+]1ccc(-c2ccccc2)cc1 [MPP, 1-methyl-4-phenylpyridinium]	almost completely absent

Same assay, conditions: low concentrations of PPI, Figure 3

Structure (SMILES)	OCT3-mediated metformin uptake at low PPI concentrations
COCCCOc1ccnc(C[S+]([O-])c2nc3ccccc3[nH]2)c1C (stereo not drawn) [Rabeprazole]	activated
COc1ccc2[nH]c([S+]([O-])Cc3ncc(C)c(OC)c3C)nc2n1 (stereo not drawn) [Tenatoprazole]	activated
COc1ccnc(C[S+]([O-])c2nc3ccc(OC(F)F)cc3[nH]2)c1OC (stereo not drawn) [Pantoprazole]	activated
